# Tested on: NA (H275Y), OSV-resistant mutant of influenza H1N1 (A/California/04/2009)
# Type: biochemical, influenza A virus
compound,measurement,value
"Cc1cc2c(c(=S)[nH]1)C(=O)O/C2=C\c1c[nH]c2ccc(F)cc12 [Compound 15a, (Z)-1-((5-Fluoro-1H-indol-3-yl)methylene)-6-methyl-4-thioxo-4,5-dihydrofuro[3,4-c]pyridin-3(1H)-one]",function of oseltamivir-resistant NA (H275Y),suppressed
